Results from publication PMC5783947 (2018).

Legend:
[1] = test system: add riboswitch aptamer (RNA, riboswitch) CAACGCUUCAUAUAAUCCUAAUGAUAUGGUUUGGGAGUUUCUACCAAGAGCCUUAAACUCUUGAUUAUGAAGUCUGUCGCUUUAUCC; test: ACE-Scan microarray, ligand-induced duplex dissociation; conditions: 130 mM KCl, 12 mM MgCl2; 50 mM Tris, pH 7.5, 23 °C; 4 mM adenine; array-bound ACEs displaced; weaker at lower Mg2+ or 10 °C
[2] = test system: ATP RNA aptamer (RNA, aptamer) CUUGGGUUGGGAAGAAACUGUGGCACUUCGGUGCCAGCAACCCCAU; test: as above; conditions: 300 mM NaCl, 5 mM MgCl2; 20 mM Tris, pH 7.6, room temperature; 10 mM ATP; array-bound ACEs displaced
[3] = test system: ATP DNA aptamer (with 5' extension) (DNA, aptamer) TCACTGACCTGGGGGAGTATTGCGGAGGAAGGT; test: solution FRET dose-response, quencher strand displacement; conditions: 300 mM NaCl, 5 mM MgCl2; 20 mM Tris, pH 8.3, 0.1% Tween-20, 22.5 °C; BHQ-2 ACEs 5'Q-2T:9, 5'Q4T:10, 5'Q4T:12:6G, 5'Q1A:15, 5'Q-5C:9 displaced

binding [1] | binding [2] | binding [3] | Structure (SMILES)
yes |  |  | Nc1ncnc2[nH]cnc12
 | yes | yes | Nc1ncnc2c1ncn2[C@@H]1O[C@H](COP(=O)(O)OP(=O)(O)OP(=O)(O)O)[C@@H](O)[C@H]1O
